Laboratory results published in patent EP4813381A1, “PHARMACEUTICAL USE OF GUAIANE SESQUITERPENE DERIVATIVE” (Nanjing University Of Chinese Medicine, priority 2023, dated 2025).

How the values were obtained:
[1] = system: MC903-induced atopic dermatitis (AD); experiment: MC903-induced ear atopic dermatitis mouse model, Compound 1 ointment: ear thickness and dermatitis score; assay type: in vivo, mice; conditions: for inhibition rate (ear thickness): final day; for Dermatitis Score: ear, score max 12
Description: Weigh white petrolatum, light liquid paraffin, glyceryl monostearate, ethylparaben, and cetyl alcohol. Heat to 65 °C while stirring until dissolved. Slowly add the dissolved active pharmaceutical ingredient (API) while continuing to stir until uniformly mixed. Set aside. • (2) Aqueous Phase Preparation: […] Slowly add the aqueous phase to the oil phase while maintaining 65 °C, homogenize, and continue stirring for 30 min; • (4) Cooling: Stop heating, continue stirring, gradually reduce to room temperature, cool to form an ointment, and fill containers. […] Dissolve these substances in a small amount of propylene glycol, then place the resulting solution into the aforementioned pre-cooled blank ointment base. […] Skin Lesion Severity Score: […] Statistical analysis was performed on the data.

[2] = system: inflammatory cytokines (TNF, IL-6, IL-1); experiment: LPS mouse sepsis model: Q-PCR of inflammatory factor mRNA in lung, liver and kidney; assay type: in vivo, C57BL/6 mice; conditions: sepsis mice
From the text: Gently pipette to mix the above reagents. The reaction conditions are as follows:
Detailed information is as follows:

CCR2 mRNA = CCR2 mRNA level in MDSCs (PCR); assay type: cell-based, mice; conditions: CCR2 mRNA levels in MDSCs, 2 h
Description: Mice were euthanized by cervical dislocation and immersed in 75% ethanol solution for 5 min. Under sterile conditions, the tibia was removed, both ends of the bone were cut, and bone marrow was repeatedly flushed into a 15 mL centrifuge tube using a 1 mL syringe filled with culture medium. Centrifuge at 1600 rpm for 5 min to collect bone marrow cells. Wash twice with 1×PBS, then resuspend in RPMI 1640 complete medium containing GM-CSF (10 ng/mL) + IL-4 (10 ng/mL) and transfer to a cell culture dish to stimulate differentiation of bone marrow cells into MDSCs. Count cells and adjust density to 1 × 10^6 cells/mL in complete medium. Seed cells uniformly into 6-well plates at 2 mL per well. […] After incubation, collect cells into centrifuge tubes, centrifuge at 1600 rpm for 5 min, wash once with 1×PBS, and add 500 µL RNA extraction reagent to each tube. After centrifugation to obtain the pellet, add 20 µL DEPC-treated water to each tube to dissolve the pellet. Determine RNA concentration and reverse transcribe to cDNA. Add the cDNA, primers, and reverse transcriptase to a 96-well plate. Centrifuge at 4000 rpm for 5 min, then place in a PCR instrument for detection.

Hepa1-6 cells = experiment: Hepa1-6 mouse hepatocellular carcinoma subcutaneous xenograft model; assay type: in vivo, C57BL/6 mice; conditions: Hepa1-6, oral 40 µmol/kg/d, 2 weeks
Description: Hepa1-6 cells were cultured and expanded in vitro. An appropriate amount of cells in the logarithmic growth phase was resuspended in a mixture of serum-free DMEM medium and Matrigel (1:1). under aseptic conditions to prepare a 2.5×10^6/100 µL cell suspension. A 100 µL aliquot of this suspension was injected subcutaneously into the left forearm axilla of male C57BL/6 mice. […] Daily oral administration was performed for 2 weeks. During the treatment period, mouse body weight and tumor diameter were measured daily. At the end of the experiment, mice were euthanized by cervical dislocation, and tumors were removed for weighing. Tumor volume (TV) was calculated using the formula: TV = 1/2 × a × b^2, where a represents the longest diameter of the tumor and b represents the shortest diameter.

diabetic nephropathy = experiment: Diabetic nephropathy (STZ + HFD, DKD) mice: Scr and BUN; assay type: in vivo, C57/BL6J mice; conditions: serum, 8 weeks
Description: Production license number: SCXK(Su)2023-0009. […] Animals were acclimated for 7 days before use in experiments.
Administer streptozotocin (STZ, 50 mg/kg) via intraperitoneal injection for 5 consecutive days. After 72 hours, select mice with fasting blood glucose levels exceeding 16.7 mmol/L as model mice. […] Model mice were fed a high-fat diet (HFD) providing 60% of energy from fat for 8 weeks. After 8 weeks, gavage administration commenced.
Specimen Collection: One hour after the last drug administration, enucleate the eyeball to collect blood. Allow blood to stand at room temperature for 2 hours, then centrifuge at 3000 rpm for 20 minutes. Aspirate the serum, aliquot it, and store at -70 °C for future use. After blood collection, euthanize the mice by cervical dislocation. Open the abdominal cavity, remove the kidneys, and dissect away the perirenal fat and capsule. Store the tissue at -70 °C for future use.
Serum Creatinine (Scr) and Blood Urea Nitrogen (BUN) Assay: For each sample, 10 µL of serum was used for creatinine and urea level detection. Samples were added sequentially strictly following the kit instructions. After incubation at 37 °C, absorbance values were measured using an enzyme-linked immunosorbent assay (ELISA) reader. The concentration levels of each indicator were calculated based on the standard curve.

[3] = kidney mRNA (relative, Gapdh), oral gavage 0.1 mg/kg
[4] = kidney mRNA (relative, Gapdh), oral gavage 1 mg/kg
[5] = liver mRNA (relative, Gapdh), oral gavage 0.1 mg/kg
[6] = liver mRNA (relative, Gapdh), oral gavage 1 mg/kg
[7] = lung mRNA (relative, Gapdh), oral gavage 0.1 mg/kg
[8] = lung mRNA (relative, Gapdh), oral gavage 1 mg/kg

C=C1C(=O)O[C@@H]2[C@@H]3[C@]4(CC[C@@]3(C)O)C[C@]4(C)CC[C@@H]12 [compound 1] was tested, and the “inhibition rate (ear thickness)” value ([1]; 0.01% Compound 1 ointment) was 71%, the ear thickness ([1]; 0.01% ointment, Day 1) was 0.14±0.00 mm and the ear thickness ([1]; 0.01% ointment, Day 3) was 0.17±0.00 mm. It also gave an ear thickness ([1]; 0.01% ointment, Day 5) of 0.21±0.00 mm, an ear thickness ([1]; 0.01% ointment, Day 7) of 0.22±0.00 mm and an ear thickness ([1]; 0.01% ointment, Day 8) of 0.23±0.01 mm. For the same compound, the ear thickness ([1]; 0.01% ointment, Day 9) was 0.23±0.01 mm, the ear thickness ([1]; 0.01% ointment, Day 10) was 0.25±0.00 mm and the ear thickness ([1]; 0.01% ointment, Day 11) was 0.26±0.01 mm. For the same compound, the ear thickness ([1]; 0.01% ointment, Day 12) was 0.26±0.01 mm, the ear thickness ([1]; 0.01% ointment, Day 13) was 0.22±0.01 mm and the ear thickness ([1]; 0.01% ointment, Day 14) was 0.21±0.01 mm. For the same compound, the “inhibition rate (ear thickness)” value ([1]; 0.1% Compound 1 ointment) was 71%, the ear thickness ([1]; 0.1% ointment, Day 1) was 0.14±0.00 mm and the ear thickness ([1]; 0.1% ointment, Day 3) was 0.17±0.00 mm. It also gave an ear thickness ([1]; 0.1% ointment, Day 5) of 0.21±0.00 mm, an ear thickness ([1]; 0.1% ointment, Day 7) of 0.21±0.00 mm and an ear thickness ([1]; 0.1% ointment, Day 8) of 0.23±0.00 mm. For the same compound, the ear thickness ([1]; 0.1% ointment, Day 9) was 0.23±0.00 mm, the ear thickness ([1]; 0.1% ointment, Day 10) was 0.23±0.00 mm and the ear thickness ([1]; 0.1% ointment, Day 11) was 0.24±0.01 mm. For the same compound, the ear thickness ([1]; 0.1% ointment, Day 12) was 0.24±0.01 mm, the ear thickness ([1]; 0.1% ointment, Day 13) was 0.21±0.01 mm and the ear thickness ([1]; 0.1% ointment, Day 14) was 0.21±0.01 mm. The “inhibition rate (ear thickness)” value ([1]; 1% Compound 1 ointment) was 80%, the ear thickness ([1]; 1% ointment, Day 1) was 0.15±0.00 mm and the ear thickness ([1]; 1% ointment, Day 3) was 0.17±0.00 mm. The ear thickness ([1]; 1% ointment, Day 5) was 0.21±0.00 mm, the ear thickness ([1]; 1% ointment, Day 7) was 0.22±0.01 mm and the ear thickness ([1]; 1% ointment, Day 8) was 0.22±0.01 mm. The ear thickness ([1]; 1% ointment, Day 9) was 0.23±0.01 mm, the ear thickness ([1]; 1% ointment, Day 10) was 0.23±0.01 mm and the ear thickness ([1]; 1% ointment, Day 11) was 0.24±0.00 mm. The ear thickness ([1]; 1% ointment, Day 12) was 0.23±0.01 mm, the ear thickness ([1]; 1% ointment, Day 13) was 0.20±0.00 mm and the ear thickness ([1]; 1% ointment, Day 14) was 0.19±0.00 mm. The “Dermatitis Score” value ([1]; 0.01% ointment for 7 days) was 3.50±0.22, the “Dermatitis Score” value ([1]; 0.1% ointment for 7 days) was 2.67±0.21 and the “Dermatitis Score” value ([1]; 1% ointment for 7 days) was 2.33±0.33. For the same compound, the Il1 [2, 3] was 7.01±0.33, the Il6 [2, 3] was 7.55±2.08 and the Tnf [2, 3] was 7.17±1.22. It also gave an Il1 [2, 4] of 3.05±0.58, an Il6 [2, 4] of 3.11±0.29 and a Tnf [2, 4] of 6.59±0.18. The Il1 [2, 5] was 11.32±2.66, the Il6 [2, 5] was 8.50±3.02 and the Tnf [2, 5] was 8.68 ± 2.12. The Il1 [2, 6] was 4.84±0.60, the Il6 [2, 6] was 5.10±0.82 and the Tnf [2, 6] was 7.01±0.92. The Il1 [2, 7] was 15.29±0.88, the Il6 [2, 7] was 19.17±0.51 and the Tnf [2, 7] was 8.58 ± 0.85. It also gave an Il1 [2, 8] of 7.89±1.44, an Il6 [2, 8] of 11.67±1.84 and a Tnf [2, 8] of 7.99±1.36. The “CCR2 mRNA suppression rate in MDSCs (%)” value (CCR2 mRNA; 1 µM) was 35.2% and the “CCR2 mRNA suppression rate in MDSCs (%)” value (CCR2 mRNA; 10 µM) was 76.5%.
With CN(C)C[C@@H]1C(=O)O[C@H]2[C@H]1CC[C@@]1(C)C[C@]13CC[C@@](C)(O)[C@H]23 [compound 20] the “Tumor Inhibition Rate (%)” value (Hepa1-6 cells) was 96.78%, the “Tumor weight” value (Hepa1-6 cells) was 0.03 ± 0.02 g and the BUN (diabetic nephropathy; gavage 1 mg/kg) was 37.01±2.50. For the same compound, the Scr (diabetic nephropathy; gavage 1 mg/kg) was 17.72±1.658, the BUN (diabetic nephropathy; gavage 10 mg/kg) was 19.71±1.22 and the Scr (diabetic nephropathy; gavage 10 mg/kg) was 12.96±0.78.
